According to US20040235761A1, “Novel virus proliferaton inhibition/virucidal method and novel pyradine nucleotide/pyradine nucleoside analogue” (priority 2001, published 2004):

Columns and labels:
[1] = Stability during the process of pharmaceutical preparation; assay type: physicochemical; conditions: compared with anhydrides
MDCK cells [2] = test: Detection of phosphate compound in cell (Test Example 1); assay type: in vitro ADME; conditions: 35° C., 20 hours, HPLC with radioactivity detector
Method: 5 ml of an E′-MEM culture medium (containing 1% bovine serum albumin and 3% vitamin solution) containing a compound, 6-fluoro-3-hydroxy-2-[2-^14C]pyrazinecarboxamide, which ha-d been ^14C-labeled at position 2 of the pyrazine ring, was added to MDCK cells that had been monolayer-cultured on a 55 cm^2 culture plate. After completion of culture under conditions of 35° C. and 5% CO2 for 20 hours, 6-fluoro-3-hydroxy-2-[2-^14C]pyrazinecarboxamide and a converted compound were extracted from cell fractions, using a 66.6% acetonitrile solution. The extract was lyophilized and concentrated, and then analysis was carried out under the HPLC analysis conditions indicated below.

[3] = tested on: bovine diarrhea virus (BVDV) NADL; test: Anti-BVDV effect (plaque inhibition in MDBK cells); assay type: cell-based; conditions: Bovine viral diarrhea virus isolates and strains, 72 h, 100 μg/mL test compound, 70 PFU/well, 3 days, read-out: Inhibition rate (plaque inhibition rate)
Method: MDBK cells that had fully grown in a 6-well culture plate were infected with bovine diarrhea virus (BVDV) NADL at 70 PFU/well. After 60 minutes, the infection solution was removed, and a test culture solution (E′-MEM) containing 5% horse serum and 1% agar (SeaPlaque Agar) that contained a 100 μg/mL test compound was added thereto. The mixture was fully solidified and then cultured for 3 days under conditions of 37° C., a humidity of 100% and 5% CO2. After completion of the culture, the test plate was fixed with a 3% formaldehyde solution, and the agar medium was removed with running water, followed by staining with a 1% crystal violet solution, so as to count the number of plaques. The plaque inhibition rate was expressed by the percentage obtained by comparing with a control to which no test compounds were added.

[4] = tested on: influenza virus A/PR/8/34; test: Anti-influenza effect (plaque inhibition in MDCK cells); assay type: cell-based; conditions: PR/8, MDCK, 72 h, read-out: Inhibition rate (plaque inhibition rate)
MDCK cells [5] = test: Detection of deprotected compound in cell (Test Example 2); assay type: in vitro ADME; conditions: 37° C., 1 hour, HPLC
Method: The compound of Example 2 was added to MDCK cells suspended in a Hank's balanced salt solution, and the mixture was incubated at 37° C. for 1 hour. Thereafter, the obtained product was layered on silicon oil (KF-99), followed by centrifugation at 4° C. Cell fractions from the precipitate were suspended and frozen-thawed in a mobile phase indicated below, and the obtained solution was analyzed under the HPLC analysis conditions indicated below.

[6] = mouse, in vivo, 300 mg/kg
Method: Compound A was administered into the caudal vein of a mouse at a dose of 300 mg/kg. 30 minutes after the administration, 1.6 g of the liver was excised, and it was then ground under ice cooling, while adding thereto 22.5 mL of 70% methanol that had been cooled to −20° C., so that compound A and a phosphate(s) form were extracted. 10 mL of the supernatant of the extract centrifuged at 4° C. for 10 minutes was purified under the condition indicated below, using a solid extraction cartridge (Varian BOND ELUT SAX HF 2 g/12 mL; eluted with 0.01 M to 1.0 M KCl) pretreated with 12 mL of methanol and 12 mL each of 1.0 M and 0.005 M KCl.
The phosphate form contained in 5 mL of No. 3 0.05 M KCl eluate and a synthetic monophosphate compound (a compound obtained in Reference Example 30) were identical in terms of HPLC retention time and UV spectrum in HPLC analysis (HPLC-1) described in HPLC conditions. In addition, the phosphate form contained in 5 mL of No. 1 0.5 M KCl eluate and a synthetic diphosphate compound (a compound obtained in Reference Example 31) were identical in terms of HPLC retention time in HPLC analysis (HPLC-2) described in HPLC conditions. […]

MDBK cells = test: Detection of triphosphate compound in cell by addition of compound A; assay type: in vitro ADME; conditions: 37° C., 24 hours
Method: 10 ml of an E′-MEM culture medium (containing 0.5% fetal bovine serum) containing compound A was added to MDBK cells that had been monolayer-cultured on a 55 cm^2 culture plate. After completion of culture under conditions of 37° C. and 5% CO2 for 24 hours, the culture was removed using a cell scraper, and the culture medium was removed by centrifugation. Thereafter, 5% trichloroacetic acid was added to the obtained cell fractions, so that a converted compound was extracted. An equal amount of 20% trioctylamine-containing pentane was added to the extract, and the obtained water layer was then concentrated using a centrifugal concentrator. In the above concentrate, a component whose HPLC retention time matches that of a synthetic compound of triphosphates (a compound obtained in Reference Example 22) was detected.

## NC(=O)c1nccn([C@@H]2O[C@H](CO)[C@@H](O)[C@H]2O)c1=O.O [Example 29 (2), 4-[(2R,3R,4S,5R)-3,4-dihydroxy-5-(hydroxymethyl)tetrahydro-2-furanyl]-3-oxo-3,4-dihydro-2-pyrazinecarboxamide monohydrate]
[1]
  stability during the process of pharmaceutical preparation: excellent stability

## NC(=O)[14c]1nc(F)cnc1O [6-fluoro-3-hydroxy-2-[2-^14C] pyrazinecarboxamide]
MDCK cells [2]
  monophosphate (Reference Example 15) and triphosphate (Reference Example 16) in cell fractions: detected

## CC(C)(C)C(=O)SCCOP(=O)(OCCSC(=O)C(C)(C)C)OC[C@H]1O[C@@H](n2ccnc(C(N)=O)c2=O)[C@H](O)[C@@H]1O [Example 2, 2,2-dimethyl-thiopropionic acid S-(2-[[(2R,3S,4R,5R)-5-(3-carbamoyl-2-oxo-2H-pyrazine-1-yl)-3,4-dihydroxy-tetrahydro-furan-2-ylmethoxy]-[2-(2,2-dimethyl-propionylsulfanyl)-ethoxy]-phosphoryloxy]-ethyl) ester]
[3]
  inhibition at 100 µg/mL: 100%
[4]
  inhibition at 100 µg/mL: 100%
MDCK cells [5]
  monophosphate as deprotected compound in cell fractions: detected

## NC(=O)c1nccn([C@@H]2O[C@H](CO)[C@@H](O)[C@H]2O)c1=O [Example 29, 4-[(2R,3R,4S,5R)-3,4-dihydroxy-5-(hydroxymethyl)tetrahydro-2-furanyl]-3-oxo-3,4-dihydro-2-pyrazinecarboxamide]
[6]
  conversion into phosphate forms in the liver: converted in vivo into a monophosphate, then into a diphosphate form, and then into a triphosphate
[3]
  inhibition at 100 µg/mL: 100%
MDBK cells
  component whose HPLC retention time matches the synthetic triphosphate (Reference Example 22) in cell extract: detected
[4]
  inhibition at 100 µg/mL: 100%
